Experiment [1] has as its target T1, human plasma kallikrein (Homo sapiens, UniProt P03952).
T1 construct: purchased Enzyme Research Laboratories
Put plainly: Plasma kallikrein enzyme inhibition assay (chromogenic substrate S-2302), Ki. The format is biochemical. The following applies: purified human plasma kallikrein, substrate S-2302, pH 7.5. As for the experimental part:
(§1) The effectiveness of compounds of the present invention as inhibitors of the coagulation Factors XIa, VIIa, IXa, Xa, XIIa, plasma kallikrein chymotrypsin, trypsin, or thrombin, can be determined using a relevant purified serine protease, respectively, and an appropriate synthetic substrate. The rate of hydrolysis of the chromogenic or fluorogenic substrate by the relevant serine protease was measured both in the absence and presence of compounds of the present invention. […] A decrease in the rate of absorbance or fluorescence change in the presence of inhibitor is indicative of enzyme inhibition. Such methods are known to one skilled in the art. The results of this assay are expressed as the inhibitory constant, Ki.
Plasma kallikrein determinations were made in 0.1 M sodium phosphate buffer at a pH of 7.5 containing 0.1-0.2 M sodium chloride and 0.5% PEG 8000. Determinations were made using purified human plasma kallikrein (Enzyme Research Laboratories) at a final assay concentration of 200 pM and the synthetic substrate S-2302 (H-(D)-Pro-Phe-Arg-pNA; CHROMOGENIX®) at a concentration of 0.00008-0.0004 M.
(§2) The Michaelis constant, Km, for substrate hydrolysis by each protease, was determined at 25° C. or 37° C. in the absence of inhibitor. Values of Ki were determined by allowing the protease to react with the substrate in the presence of the inhibitor. Reactions were allowed to go for periods of 20-180 minutes (depending on the protease) and the velocities (rate of absorbance or fluorescence change versus time) were measured. The following relationships were used to calculate Ki values: (Vmax*S)/(Km+S) (vo−vs)/vs=I/(Ki*(1+S/Km)) for a competitive inhibitor with one binding site; or vs/vo=A+((B−A)/(1+(IC50/(I)^n)); and Ki=IC50/(1+S/Km) for a competitive inhibitor where: […]

The target of experiment [2] is T2, human Factor XIa (Homo sapiens, UniProt P03951).
T2 construct: purchased Haematologic Technologies
Put plainly: Factor XIa enzyme inhibition assay (chromogenic substrate S-2366), Ki. The following applies: purified human Factor XIa, substrate S-2366, pH 7.4. The format is biochemical. As for the experimental part:
as §1
Factor XIa determinations were made in 50 mM HEPES buffer at pH 7.4 containing 145 mM NaCl, 5 mM KCl, and 0.1% PEG 8000 (polyethylene glycol; JT Baker or Fisher Scientific). Determinations were made using purified human Factor XIa at a final concentration of 25-200 pM (Haematologic Technologies) and the synthetic substrate S-2366 (pyroGlu-Pro-Arg-pNA; CHROMOGENIX® or AnaSpec) at a concentration of 0.0002-0.001 M.
as §2

Counter-ions that a name gives are not always drawn.

T1 sequence (P03952 391-638 limits assumed): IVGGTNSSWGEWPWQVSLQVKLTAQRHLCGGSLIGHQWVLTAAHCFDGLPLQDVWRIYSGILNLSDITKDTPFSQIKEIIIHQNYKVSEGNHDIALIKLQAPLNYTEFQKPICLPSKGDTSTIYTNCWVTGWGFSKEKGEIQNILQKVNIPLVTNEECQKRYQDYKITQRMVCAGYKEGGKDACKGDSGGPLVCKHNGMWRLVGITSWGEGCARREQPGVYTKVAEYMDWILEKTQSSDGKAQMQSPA
T1 sequence (P03952 20-390 partner limits assumed): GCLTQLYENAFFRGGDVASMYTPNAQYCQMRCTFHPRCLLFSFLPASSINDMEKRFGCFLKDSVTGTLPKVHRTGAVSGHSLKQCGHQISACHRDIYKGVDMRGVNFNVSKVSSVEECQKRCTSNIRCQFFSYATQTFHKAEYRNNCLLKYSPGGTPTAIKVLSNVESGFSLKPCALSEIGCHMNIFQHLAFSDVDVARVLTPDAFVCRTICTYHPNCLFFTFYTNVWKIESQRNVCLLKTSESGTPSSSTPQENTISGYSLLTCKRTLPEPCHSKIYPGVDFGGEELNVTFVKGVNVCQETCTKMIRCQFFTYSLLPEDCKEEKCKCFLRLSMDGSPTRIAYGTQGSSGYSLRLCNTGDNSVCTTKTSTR
T2 sequence (P03951 388-625 limits assumed): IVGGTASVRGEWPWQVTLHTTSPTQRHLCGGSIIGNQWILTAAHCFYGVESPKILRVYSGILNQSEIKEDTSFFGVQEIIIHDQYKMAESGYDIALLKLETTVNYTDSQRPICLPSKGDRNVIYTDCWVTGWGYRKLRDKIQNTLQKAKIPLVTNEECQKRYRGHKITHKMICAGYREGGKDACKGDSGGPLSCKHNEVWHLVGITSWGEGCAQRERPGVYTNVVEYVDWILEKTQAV
T2 sequence (P03951 19-387 partner limits assumed): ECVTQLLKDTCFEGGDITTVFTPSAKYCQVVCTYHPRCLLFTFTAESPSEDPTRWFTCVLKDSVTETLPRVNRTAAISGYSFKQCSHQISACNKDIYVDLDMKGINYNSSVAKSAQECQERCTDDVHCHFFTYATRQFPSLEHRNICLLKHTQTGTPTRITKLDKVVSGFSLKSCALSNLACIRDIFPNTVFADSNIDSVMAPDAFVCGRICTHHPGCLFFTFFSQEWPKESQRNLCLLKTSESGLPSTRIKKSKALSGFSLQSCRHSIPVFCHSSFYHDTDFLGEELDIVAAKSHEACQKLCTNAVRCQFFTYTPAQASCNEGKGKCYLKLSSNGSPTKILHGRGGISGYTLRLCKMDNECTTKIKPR

For the molecule `CC(C)(C)OC(=O)N1CCN2c3cccc(c3)[C@@H](n3cnc(-c4cc(Cl)ccc4-n4cc(Cl)nn4)cc3=O)CCCCCNC(=O)[C@@H]2C1` [Example 1, tert-butyl (7S,15S)-15-{4-[5-chloro-2-(4-chloro-1H-1,2,3-triazol-1-yl)phenyl]-6-oxo-1,6-dihydropyrimidin-1-yl}-8-oxo-2,5,9-triazatricyclo[14.3.1.0^2,7]icosa-1(20),16,18-triene-5-carboxylate], the Ki in experiment [1] was determined as 3470 nM; in experiment [2] it was 955 nM.
Regarding `O=C1NCCCCC[C@H](n2cnc(-c3cc(Cl)ccc3-n3cc(Cl)nn3)cc2=O)c2cccc(c2)N2CCNC[C@@H]12` [Example 2, (7S,15S)-15-{4-[5-chloro-2-(4-chloro-1H-1,2,3-triazol-1-yl)phenyl]-6-oxo-1,6-dihydropyrimidin-1-yl}-2,5,9-triazatricyclo[14.3.1.0^2,7]icosa-1(20),16,18-trien-8-one hydrochloride], the Ki is 7290 nM in experiment [1] and 542 nM in experiment [2].
The corresponding values for `COC(=O)N1CCN2c3cccc(c3)[C@@H](n3cnc(-c4cc(Cl)ccc4-n4cc(Cl)nn4)cc3=O)CCCCCNC(=O)[C@@H]2C1` [Example 3, methyl (7S,15S)-15-{4-[5-chloro-2-(4-chloro-1H-1,2,3-triazol-1-yl)phenyl]-6-oxo-1,6-dihydropyrimidin-1-yl}-8-oxo-2,5,9-triazatricyclo[14.3.1.0^2,7]icosa-1(20),16,18-triene-5-carboxylate] are 4110 nM and 643 nM.
The corresponding values for `CC(C)(C)OC(=O)N1CC(=O)N2c3cccc(c3)[C@@H](n3cnc(-c4cc(Cl)ccc4-n4cc(Cl)nn4)cc3=O)CCCCCNC(=O)[C@@H]2C1` [Example 4, tert-butyl (7S,15S)-15-{4-[5-chloro-2-(4-chloro-1H-1,2,3-triazol-1-yl)phenyl]-6-oxo-1,6-dihydropyrimidin-1-yl}-3,8-dioxo-2,5,9-triazatricyclo[14.3.1.0^2,7]icosa-1(20),16,18-triene-5-carboxylate] are 3140 nM and 9020 nM.
The corresponding values for `CC(C)(C)OC(=O)N1CC(=O)N2c3cccc(c3)[C@@H](n3cnc(-c4cc(Cl)ccc4-n4cc(Cl)nn4)cc3=O)CCCCCNC(=O)[C@H]2C1` [Example 5, tert-butyl (7R,15S)-15-{4-[5-chloro-2-(4-chloro-1H-1,2,3-triazol-1-yl)phenyl]-6-oxo-1,6-dihydropyrimidin-1-yl}-3,8-dioxo-2,5,9-triazatricyclo[14.3.1.0^2,7]icosa-1(20),16,18-triene-5-carboxylate] are 6000 nM and 276 nM.
Turning to `O=C1NCCCCC[C@H](n2cnc(-c3cc(Cl)ccc3-n3cc(Cl)nn3)cc2=O)c2cccc(c2)N2C(=O)CNC[C@@H]12` [Example 6, (7S,15S)-15-{4-[5-chloro-2-(4-chloro-1H-1,2,3-triazol-1-yl)phenyl]-6-oxo-1,6-dihydropyrimidin-1-yl}-2,5,9-triazatricyclo[14.3.1.0^2,7]icosa-1(20),16,18-triene-3,8-dione hydrochloride], the inhibition constant Ki in experiment [1] stood at 13000 nM; in experiment [2] it was 6000 nM.
For `O=C1NCCCCC[C@H](n2cnc(-c3cc(Cl)ccc3-n3cc(Cl)nn3)cc2=O)c2cccc(c2)N2C(=O)CNC[C@H]12` [Example 7, (7R,15S)-15-{4-[5-chloro-2-(4-chloro-1H-1,2,3-triazol-1-yl)phenyl]-6-oxo-1,6-dihydropyrimidin-1-yl}-2,5,9-triazatricyclo[14.3.1.0^2,7]icosa-1(20),16,18-triene-3,8-dione hydrochloride], the Ki stood at 4780 nM in experiment [1] and 97 nM in experiment [2].
The like results for `CC(C)(C)OC(=O)N1CCN2c3cccc(c3)[C@@H](n3cnc(-c4cc(Cl)ccc4-n4cc(Cl)nn4)cc3=O)CCCCCNC(=O)[C@H]2C1` [Example 8, tert-butyl (7R,15S)-15-{4-[5-chloro-2-(4-chloro-1H-1,2,3-triazol-1-yl)phenyl]-6-oxo-1,6-dihydropyrimidin-1-yl}-8-oxo-2,5,9-triazatricyclo[14.3.1.0^2,7]icosa-1(20),16,18-triene-5-carboxylate] were, in that order, 1090 nM and 21 nM.
On to `O=C1NCCCCC[C@H](n2cnc(-c3cc(Cl)ccc3-n3cc(Cl)nn3)cc2=O)c2cccc(c2)N2CCNC[C@H]12` [Example 9, (7R,15S)-15-{4-[5-chloro-2-(4-chloro-1H-1,2,3-triazol-1-yl)phenyl]-6-oxo-1,6-dihydropyrimidin-1-yl}-2,5,9-triazatricyclo[14.3.1.0^2,7]icosa-1(20),16,18-trien-8-one hydrochloride], for which the Ki in experiment [1] was determined as 1820 nM; in experiment [2] it was 11 nM.
As for `COC(=O)N1CCN2c3cccc(c3)[C@@H](n3cnc(-c4cc(Cl)ccc4-n4cc(Cl)nn4)cc3=O)CCCCCNC(=O)[C@H]2C1` [Example 10, methyl (7R,15S)-15-{4-[5-chloro-2-(4-chloro-1H-1,2,3-triazol-1-yl)phenyl]-6-oxo-1,6-dihydropyrimidin-1-yl}-8-oxo-2,5,9-triazatricyclo[14.3.1.0^2,7]icosa-1(20),16,18-triene-5-carboxylate], the inhibitory constant (Ki) is 862 nM in experiment [1] and 5 nM in experiment [2].
The like results for `CC(C)(C)OC(=O)CN1CCN2c3cccc(c3)[C@@H](n3cnc(-c4cc(Cl)ccc4-n4cc(Cl)nn4)cc3=O)CCCCCNC(=O)[C@H]2C1` [Example 11, tert-butyl 2-[(7R,15S)-15-{4-[5-chloro-2-(4-chloro-1H-1,2,3-triazol-1-yl)phenyl]-6-oxo-1,6-dihydropyrimidin-1-yl}-8-oxo-2,5,9-triazatricyclo[14.3.1.0^2,7]icosa-1(20),16,18-trien-5-yl]acetate trifluoromethylacetate] were, in that order, 460 nM and 11 nM.
The like results for `CC(=O)N1CCN2c3cccc(c3)[C@@H](n3cnc(-c4cc(Cl)ccc4-n4cc(Cl)nn4)cc3=O)CCCCCNC(=O)[C@H]2C1` [Example 12, (7R,15S)-5-acetyl-15-{4-[5-chloro-2-(4-chloro-1H-1,2,3-triazol-1-yl)phenyl]-6-oxo-1,6-dihydropyrimidin-1-yl}-2,5,9-triazatricyclo[14.3.1.0^2,7]icosa-1(20),16,18-trien-8-one] were, in that order, 1050 nM and 6 nM.
The corresponding values for `CN1CCN2c3cccc(c3)[C@@H](n3cnc(-c4cc(Cl)ccc4-n4cc(Cl)nn4)cc3=O)CCCCCNC(=O)[C@H]2C1` [Example 13, (7R,15S)-15-{4-[5-chloro-2-(4-chloro-1H-1,2,3-triazol-1-yl)phenyl]-6-oxo-1,6-dihydropyrimidin-1-yl}-5-methyl-2,5,9-triazatricyclo[14.3.1.0^2,7]icosa-1(20),16,18-trien-8-one, trifluoromethyl acetate] are 441 nM and 10 nM.
Take `O=C(O)CN1CCN2c3cccc(c3)[C@@H](n3cnc(-c4cc(Cl)ccc4-n4cc(Cl)nn4)cc3=O)CCCCCNC(=O)[C@H]2C1` [Example 14, 2-[(7R,15S)-15-{4-[5-chloro-2-(4-chloro-1H-1,2,3-triazol-1-yl)phenyl]-6-oxo-1,6-dihydropyrimidin-1-yl}-8-oxo-2,5,9-triazatricyclo[14.3.1.0^2,7]icosa-1(20),16,18-trien-5-yl]acetic acid trifluoromethyl acetate]: the inhibition constant Ki is 107 nM in experiment [1] and 5 nM in experiment [2].

Source of the values: patent publication US10676477B2, “Factor XIa macrocycle inhibitors bearing a non-aromatic P2' group” (BRISTOL-MYERS SQUIBB COMPANY, priority 2015, dated 2020).
